Laboratory results as given in US12594279B2, “Composition for preventing or treating TNF-α-related disease, comprising hydroflumethiazide as active ingredient” (SK CHEMICALS CO., LTD., priority 2020, dated 2026).
Structures can show the parent of a compound that is named as a salt.

Experiments:
[1] = system: rheumatoid arthritis DBA-1J mouse model; assay: Arthritis index in collagen-induced rheumatoid arthritis DBA-1J mouse model; type: in vivo
Protocol: (§1) DBA-1J mice were purchased from Central Lab. Animal Inc. Bovine Type II collagen (2 mg/mL) was emulsified in 4 mg/mL of Complete Freund's adjuvant at 1:1, and then injected subcutaneously to the DBA-1J mice at the base of the tail with 100 μL/head to induce arthritis first. Then, after 3 weeks, Bovine Type II collagen (2 mg/mL) was emulsified in Incomplete Freund's adjuvant at 1:1 and injected subcutaneously to the DBA-1J mice at the base of the tail with 100 μL/head to prepare rheumatoid arthritis animal models.
(§2) As a normal control group, 0.5% methyl cellulose (MC) was orally administered to healthy DBA-1J mice, and as a comparative control group, 0.5% MC was orally administered to the prepared rheumatoid arthritis mouse models, daily for 2 weeks. Methotrexate (MTX, 2 mg/kg/2 day), hydroxychloroquine (HCQ, 80 mg/kg/day), which are commercially available therapeutic agents for rheumatoid arthritis, and hydroflumethiazide (5 mg/kg/day or 20 mg/kg/day) were orally administered daily for 2 weeks to the prepared rheumatoid arthritis mouse models, respectively.
[…] Reference: 0, No edema or swelling: 1, Mild edema and redness confined to the joint: 2, Mild edema and redness from the joint to carpal bone and tarsal bone: 3, Moderate edema and redness from the joint to carpal bone and tarsal bone: 4, Overall edema and redness and joint stiffness: 5. In the arthritis index, the highest score was set to 16 points by summing up the four limb scores. In addition, the size of the lower extremity edema was measured using a micrometer on day 14 after each drug was administered in each of the control groups and experimental groups.

[2] = system: rheumatoid arthritis DBA-1J mouse model; assay: Size of lower extremity edema  in rheumatoid arthritis DBA-1J mouse model; type: in vivo; parameters: Size of lower extremity edema, Right Feet / Size of lower extremity edema, Left Feet: unit not given here
Protocol: as §1, §2
Arthritis indices were measured on day 9 and 14 after the administration of each drug in each of the control groups and experimental groups on the basis of the following criteria. Reference: 0, No edema or swelling: 1, Mild edema and redness confined to the joint: 2, Mild edema and redness from the joint to carpal bone and tarsal bone: 3, Moderate edema and redness from the joint to carpal bone and tarsal bone: 4, Overall edema and redness and joint stiffness: 5. In the arthritis index, the highest score was set to 16 points by summing up the four limb scores. […]

[3] = system: rheumatoid arthritis DBA-1J mouse model; assay: Histopathological quantification of ankle regions (H&E, safranin-O) in rheumatoid arthritis DBA-1J mouse model; type: in vivo
Protocol: as §1, §2
On day 14 of administration, the mice in each of the control groups and experimental groups were sacrificed, and then joint staining photographs were taken through the following process. The ankle areas of the sacrificed mice were subjected to general tissue treatment processes such as demineralization, trimming, dehydration, paraffin embedding, and microtome cutting to prepare specimens for histopathological examination. Then, Hematoxylin & Eosin (H&E) and safranin-O stainings were performed, and histopathological changes were observed using an optical microscope (FIG. 5).
In addition, the degrees of synovium proliferation, bone destruction, and cartilage damage were quantified, and the results are shown in Table 5 below.

RAW 264.7 = assay: MTT assay cell viability; type: cell-based; conditions: for Cytotoxicity (MTT assay): concentrations of Table 1
TNF-α = TNF-α expression level by ELISA in LPS-induced RAW 264.7 cells; type: cell-based; conditions: for TNF-α: LPS 10 ng/ml-induced RAW 264.7, ELISA
Protocol: In addition, in order to confirm an effect of inhibiting the TNF-α expression of hydroflumethiazide in induced inflammatory cells, an experiment was performed as follows. RAW 264.7 cells were treated with DMSO at a concentration of 0.01% (v/v) as an untreated control group, and the cells were treated with LPS at a concentration of 10 ng/ml as a control group to induce an inflammatory response. […] Then, the expression level of TNF-α was measured and compared through the ELISA method in the groups treated with respective drugs.

[4] = system: rheumatoid arthritis DBA-1J mouse model; assay: Histopathological quantification of ankle regions (H&E, safranin-O) in rheumatoid arthritis DBA-1J mouse model; type: in vivo; conditions: oral, FIG. 6
[5] = Mus musculus, RAW264.7, TNF-α, LPS-induced RAW 264.7, 20 uM

SMILES: CCN(CCO)CCCC(C)Nc1ccnc2cc(Cl)ccc12 (stereo not drawn) [HCQ, hydroxychloroquine]
- Arthritis index ([1]; Day 0, G4, 80 mg/kg/day oral): 2.3 ± 1.4
- Arthritis index ([1]; Day 2, G4, 80 mg/kg/day oral): 4.7 ± 1.2
- Arthritis index ([1]; Day 4, G4, 80 mg/kg/day oral): 6 ± 1.3
- Arthritis index ([1]; Day 7, G4, 80 mg/kg/day oral): 7 ± 1.3
- Arthritis index ([1]; Day 9, G4, 80 mg/kg/day oral): 7.5 ± 1.2
- Arthritis index ([1]; Day 11, G4, 80 mg/kg/day oral): 7.8 ± 1.2
- Arthritis index ([1]; Day 14, G4, 80 mg/kg/day oral): 8.5 ± 1.5
- Size of lower extremity edema, Left Feet ([2]; Day 0, G4, 80 mg/kg/day oral): 0.12 ± 0.02
- Size of lower extremity edema, Right Feet ([2]; Day 0, G4, 80 mg/kg/day oral): 0.11 ± 0.02
- Size of lower extremity edema, Left Feet ([2]; Day 14, G4, 80 mg/kg/day oral): 0.16 ± 0.04
- Size of lower extremity edema, Right Feet ([2]; Day 14, G4, 80 mg/kg/day oral): 0.15 ± 0.03
- Bone destruction ([3]; day 14, G4, 80 mg/kg/day oral): 2.3 ± 0.5
- Cartilage damage ([3]; day 14, G4, 80 mg/kg/day oral): 2 ± 0.6
- Synovium proliferation ([3]; day 14, G4, 80 mg/kg/day oral): 3 ± 0.0
- Total (synovium proliferation, cartilage damage, bone destruction) ([3]; day 14, G4, 80 mg/kg/day oral): 7.3 ± 1.0

SMILES: NS(=O)(=O)c1cc2c(cc1C(F)(F)F)NCNS2(=O)=O [Hydroflumethiazide, hydroflumethiazide]
- Cytotoxicity (MTT assay) (RAW 264.7): cytotoxicity was not exhibited
- Viability (RAW 264.7; treatment concentration 0.1 uM): 106.35%
- Viability (RAW 264.7; treatment concentration 1 uM): 101.82%
- Viability (RAW 264.7; treatment concentration 10 uM): 105.73%
- Viability (RAW 264.7; treatment concentration 20 uM): 101.11%
- TNF-α (TNF-α; 0.1 uM): 1466.48 pg/mL
- TNF-α (TNF-α; 1 uM): 1289.62 pg/mL
- TNF-α (TNF-α; 10 uM): 837.44 pg/mL
- TNF-α (TNF-α; 20 uM): 625.65 pg/mL
- inhibition at 0.1 µM (TNF-α; Mus musculus, RAW264.7, TNF-α, LPS-induced RAW 264.7, 0.1 uM): 20.8%
- inhibition at 1 µM (TNF-α; Mus musculus, RAW264.7, TNF-α, LPS-induced RAW 264.7, 1 uM): 30.4%
- inhibition at 10 µM (TNF-α; Mus musculus, RAW264.7, TNF-α, LPS-induced RAW 264.7, 10 uM): 54.8%
- inhibition at 20 µM (TNF-α; [5]): 66.2%
- Decrease of expression level of TNF-α (TNF-α; inflammatory response-induced RAW 264.7, at least 0.1 μM): at least 20%
- Expression level of TNF-α compared to the group treated with PS1145 (TNF-α; inflammatory response-induced RAW 264.7, at least 1 μM): further decreased compared to the group treated with PS1145
- Decrease of expression of TNF-α (TNF-α; inflammatory response-induced RAW 264.7, at least 10 μM): at least 50%
- Arthritis index compared to the MTX-administered group ([1]; 20 mg/kg/day, day 14): decreased at a similar level to the MTX-administered group
- Arthritis index ([1]; Day 0, G5, 5 mg/kg/day oral): 2.3 ± 1
- Arthritis index ([1]; Day 0, G6, 20 mg/kg/day oral): 2.3 ± 1
- Arthritis index ([1]; Day 2, G5, 5 mg/kg/day oral): 4.2 ± 1.6
- Arthritis index ([1]; Day 2, G6, 20 mg/kg/day oral): 4 ± 1.7
- Arthritis index ([1]; Day 4, G5, 5 mg/kg/day oral): 5.8 ± 1.8
- Arthritis index ([1]; Day 4, G6, 20 mg/kg/day oral): 5 ± 1.4
- Arthritis index ([1]; Day 7, G5, 5 mg/kg/day oral): 6 ± 2.1
- Arthritis index ([1]; Day 7, G6, 20 mg/kg/day oral): 5.7 ± 1.5
- Arthritis index ([1]; Day 9, G5, 5 mg/kg/day oral): 6.7 ± 2.0
- Arthritis index ([1]; Day 9, G6, 20 mg/kg/day oral): 6.2 ± 1.7
- Arthritis index ([1]; Day 11, G5, 5 mg/kg/day oral): 7.2 ± 1.7
- Arthritis index ([1]; Day 11, G6, 20 mg/kg/day oral): 6.8 ± 1.6
- Arthritis index ([1]; Day 14, G5, 5 mg/kg/day oral): 8 ± 2.5
- Arthritis index ([1]; Day 14, G6, 20 mg/kg/day oral): 7.3 ± 2.3
- Arthritis index compared to the HCQ-administered group ([1]; from day 9 of the administration): significantly decreased
- Size of the lower extremity edema compared to the MTX-administered group ([2]; 20 mg/kg/day, day 14): decreased at a similar level to the MTX-administered group
- Size of lower extremity edema, Left Feet ([2]; Day 0, G5, 5 mg/kg/day oral): 0.09 ± 0.01
- Size of lower extremity edema, Right Feet ([2]; Day 0, G5, 5 mg/kg/day oral): 0.11 ± 0.03
- Size of lower extremity edema, Left Feet ([2]; Day 0, G6, 20 mg/kg/day oral): 0.11 ± 0.03
- Size of lower extremity edema, Right Feet ([2]; Day 0, G6, 20 mg/kg/day oral): 0.1 ± 0.01
- Size of lower extremity edema, Left Feet ([2]; Day 14, G5, 5 mg/kg/day oral): 0.14 ± 0.02
- Size of lower extremity edema, Right Feet ([2]; Day 14, G5, 5 mg/kg/day oral): 0.15 ± 0.04
- Size of lower extremity edema, Left Feet ([2]; Day 14, G6, 20 mg/kg/day oral): 0.15 ± 0.03
- Size of lower extremity edema, Right Feet ([2]; Day 14, G6, 20 mg/kg/day oral): 0.15 ± 0.03
- Bone destruction ([3]; day 14, G5, 5 mg/kg/day oral): 1.8 ± 1.0
- Cartilage damage ([3]; day 14, G5, 5 mg/kg/day oral): 2 ± 0.9
- Synovium proliferation ([3]; day 14, G5, 5 mg/kg/day oral): 3 ± 0.0
- Total (synovium proliferation, cartilage damage, bone destruction) ([3]; day 14, G5, 5 mg/kg/day oral): 6.8 ± 1.8
- Bone destruction ([3]; day 14, G6, 20 mg/kg/day oral): 2.5 ± 0.5 ^
- Cartilage damage ([3]; day 14, G6, 20 mg/kg/day oral): 1.7 ± 0.8
- Synovium proliferation ([3]; day 14, G6, 20 mg/kg/day oral): 2.2 ± 1.2
- Total (synovium proliferation, cartilage damage, bone destruction) ([3]; day 14, G6, 20 mg/kg/day oral): 6.3 ± 1.5
- Anti-arthritic effect compared to HCQ [4]: superior to HCQ

SMILES: CN(Cc1cnc2nc(N)nc(N)c2n1)c1ccc(C(=O)N[C@@H](CCC(=O)O)C(=O)O)cc1 [MTX, Methotrexate]
- Arthritis index ([1]; Day 0, G3, 2 mg/kg/2 day oral): 2.3 ± 1.6
- Arthritis index ([1]; Day 2, G3, 2 mg/kg/2 day oral): 4.2 ± 1.0
- Arthritis index ([1]; Day 4, G3, 2 mg/kg/2 day oral): 5 ± 1.3
- Arthritis index ([1]; Day 7, G3, 2 mg/kg/2 day oral): 5.8 ± 1.3
- Arthritis index ([1]; Day 9, G3, 2 mg/kg/2 day oral): 6.3 ± 1.4
- Arthritis index ([1]; Day 11, G3, 2 mg/kg/2 day oral): 6.7 ± 1.5
- Arthritis index ([1]; Day 14, G3, 2 mg/kg/2 day oral): 7 ± 1.3
- Size of lower extremity edema, Left Feet ([2]; Day 0, G3, 2 mg/kg/2 day oral): 0.11 ± 0.02
- Size of lower extremity edema, Right Feet ([2]; Day 0, G3, 2 mg/kg/2 day oral): 0.1 ± 0.02
- Size of lower extremity edema, Left Feet ([2]; Day 14, G3, 2 mg/kg/2 day oral): 0.12 ± 0.02
- Size of lower extremity edema, Right Feet ([2]; Day 14, G3, 2 mg/kg/2 day oral): 0.15 ± 0.03
- Bone destruction ([3]; day 14, G3, 2 mg/kg/2 day oral): 1.5 ± 0.8
- Cartilage damage ([3]; day 14, G3, 2 mg/kg/2 day oral): 1.3 ± 0.5
- Synovium proliferation ([3]; day 14, G3, 2 mg/kg/2 day oral): 2.5 ± 0.5
- Total (synovium proliferation, cartilage damage, bone destruction) ([3]; day 14, G3, 2 mg/kg/2 day oral): 5.3 ± 1.5

SMILES: O=C(Nc1cc(Cl)cc2c1[nH]c1cnccc12)c1cccnc1 [PS1145, N-(6-chloro-9H-pyrido[3,4-b]indol-8-yl)-3-pyridinecarboxamide dihydrochloride]
- Cytotoxicity (MTT assay) (RAW 264.7): cytotoxicity was not exhibited
- Viability (RAW 264.7; treatment concentration 20 uM): 99.16%
- TNF-α (TNF-α; 20 uM): 1402.08 pg/mL
- inhibition at 20 µM (TNF-α; [5]): 24.3%
